Reference: article PMC12774368, “Cyclic-di-GMP controls Type III effector export and symptom development in Pseudomonas syringae infections via the export ATPase HrcN” (PLOS Pathogens, 2025)

Biological target: T1, HrcN (Δ1-18 WT HrcN) (Pseudomonas syringae group genomosp. 3, UniProt Q887B5)
T1 construct: gene sctN; N-terminal residues 1-18 removed, His6-tagged (tag not reported cut), pETM11, expressed in E. coli BL21(DE3) pLysS, HisTrap purified
Assay type: binding
Details: 1 mM unlabelled competitor, 1.25 µM HrcN, 0.6 µM 2'-Fluo-AHC-c-diGMP; pH 7.5, 10 mM MgCl2

Q: With `Nc1nc2c(ncn2[C@@H]2O[C@@H]3COP(=O)(O)O[C@H]4[C@@H](O)[C@H](n5cnc6c(=O)[nH]c(N)nc65)O[C@@H]4COP(=O)(O)O[C@H]3[C@H]2O)c(=O)[nH]1` [cyclic-di-GMP] as the compound, how does the “competition DRaCALA against fluorescent c-di-GMP” value read?
A: fluorescent cdG binding could be disrupted by the addition of unlabelled cdG
